Results as given in patent US11225503B2, “Crystobactamides” (HELMHOLTZ-ZENTRUM FÜR INFEKTIONSFORSCHUNG GMBH, priority 2013, dated 2022).
Converted amounts (≈) assume the structure as drawn.

What was measured:
Type in all cases: cell-based
[1] = tested on: E. coli strain WT-3.2 (single-step gyrA mutation); experiment: Susceptibility of mutant E. coli strains, MIC; details: Escherichia coli WT-3.2 [gyrA(D87G)]
Text: (§1) Cystobactamides were screened using a panel of E. coli strains with typical mutations in gyrA and parC genes (Table 11).
(§2) Bacterial wildtype strains used in susceptibility assays were either part of our strain collection or purchased from the German Collection of Microorganisms and Cell Cultures (DSMZ) or from the American Type Culture Collection (ATCC). E. coli strain WT^[6] and E. coli mutants were kindly provided by Prof. Dr. P. Heisig, Pharmaceutical Biology and Microbiology, University of Hamburg.
(§3) MIC values were determined in microdilution assays. Overnight cultures were diluted in the appropriate growth medium to achieve an inoculum of 10^4-10^6 cfu/mL. Yeasts were grown in Myc medium (1% phytone peptone, 1% glucose, 50 mM HEPES, pH 7.0), S. pneumonia and E. faecalis in tryptic soy broth (TSB: 1.7% peptone casein, 0.3% peptone soymeal, 0.25% glucose, 0.5% NaCl, 0.25% K2HPO4; pH 7.3); M. smegmatis in Middlebrook 7H9 medium supplemented with 10% Middlebrook ADC enrichment and 2 ml/l glycerol). All other listed bacteria were grown in Müller-Hinton broth (0.2% beef infusion solids, 1.75% casein hydrolysate, 0.15% starch, pH 7.4). Cystobactamides and reference drugs were added directly to the cultures in sterile 96-well plates as duplicates and serial dilutions were prepared. Microorganisms were grown on a microplate shaker (750 rpm, 30-37° C., 18-48 h), except S. pneumonia, which was grown at non-shaking conditions (37° C., 5% CO2, 18 h). Growth inhibition was assessed by visual inspection and the MIC was defined as the lowest concentration of compound that inhibited visible growth.

[2] = tested on: E. coli strain MI (single-step gyrA mutation); experiment: Susceptibility of mutant E. coli strains, MIC; details: Escherichia coli MI [gyrA(S83L)]
Text: as §1, §2, §3

[3] = tested on: E. coli strain WT-4 M2.1 (parC mutation); experiment: Susceptibility of mutant E. coli strains, MIC; details: Escherichia coli WT-4 M2.1 [parC(S801)]
Text: as §1, §2, §3

[4] = tested on: E. coli strain WT-3 (combination of both gyrA mutations); details: Escherichia coli WT-3 [gyrA(S83L, D87G)]
Text: as §1, §2
as §3, with “Cystobactamides and reference drugs were added directly to the cultures in sterile 96-well plates as duplicates and serial dilutions were prepared. Microorganisms were grown on a microplate shaker (750 rpm, 30-37° C., 18-48 h), except S. pneumonia, which was grown at non-shaking conditions (37° C., 5% CO2, 18 h).” left out

[5] = tested on: Escherichia coli MI-4 [gyrA(S83L), parC(S801)]; experiment: Susceptibility of mutant E. coli strains, MIC
Text: as §1

[6] = tested on: Escherichia coli ATCC35218; experiment: Susceptibility testing, MIC microdilution
Protocol: as §2, §3

[7] = tested on: Burkholderia cenocepacia DSM-16553; experiment: Susceptibility testing, MIC microdilution; details: Burkholderia cenocepacia DSM-16553
Protocol: as §2, §3

[8] = tested on: Escherichia coli ATCC25922; experiment: Susceptibility testing, MIC microdilution
Protocol: as §2, §3

[9] = tested on: Acinetobacter baumannii DSM-30008; experiment: Susceptibility testing, MIC microdilution; details: Acinetobacter baumannii DSM-30008
Protocol: as §2, §3

[10] = tested on: Micrococcus luteus DSM-1790; experiment: Susceptibility testing, MIC microdilution; details: Micrococcus luteus DSM-1790
Protocol: as §2, §3

[11] = tested on: Enterococcus faecalis ATCC29212; experiment: Susceptibility testing, MIC microdilution
Protocol: as §2, §3

[12] = tested on: Chromobacterium violaceum DSM-30191; experiment: Susceptibility testing, MIC microdilution; details: Chromobacterium violaceum DSM-30191
Protocol: as §2, §3

[13] = tested on: Klebsiella pneumoniae DSM-30104; experiment: Susceptibility testing, MIC microdilution; details: Klebsiella pneumoniae DSM-30104
Protocol: as §2, §3

[14] = tested on: Staphylococcus aureus ATCC29213; experiment: Susceptibility testing, MIC microdilution
Protocol: as §2, §3

Bacillus subtilis DSM-10 = experiment: Susceptibility testing, MIC microdilution; details: Bacillus subtilis DSM-10
Protocol: as §2, §3

[15] = tested on: Candida albicans DSM-1665; experiment: Susceptibility testing, MIC microdilution; details: Candida albicans DSM-1665
Protocol: as §2, §3

[16] = tested on: Streptococcus pneumoniae DSM-20566; experiment: Susceptibility testing, MIC microdilution; details: Streptococcus pneumoniae DSM-20566
Protocol: as §2, §3

[17] = tested on: Mycobacterium smegmatis mc^2155 ATCC700084; experiment: Susceptibility testing, MIC microdilution; details: Mycobacterium smegmatis mc^2155 ATCC700084
Protocol: as §2, §3

[18] = tested on: Escherichia coli DSM-12242 (NAL^R); experiment: Susceptibility testing, MIC microdilution; details: Escherichia coli DSM-12242 (NAL^R)
Protocol: as §2, §3

[19] = tested on: Escherichia coli DSM-1116; experiment: Susceptibility testing, MIC microdilution; details: Escherichia coli DSM-1116
Protocol: as §2, §3

[20] = tested on: Escherichia coli DSM-26863 (tolC3); experiment: Susceptibility testing, MIC microdilution; details: Escherichia coli DSM-26863 (tolC3)
Protocol: as §2, §3

[21] = tested on: Pseudomonas aeruginosa ATCC27853; experiment: Susceptibility testing, MIC microdilution
Protocol: as §2, §3

Pichia anomala DSM-6766 = experiment: Susceptibility testing, MIC microdilution; details: Pichia anomala DSM-6766
Protocol: as §2, §3

[22] = tested on: Enterobacter aerogenes DSM-30053; experiment: Susceptibility testing, MIC microdilution; details: Enterobacter aerogenes DSM-30053
Protocol: as §2, §3

[23] = tested on: several microorganisms and cell lines; experiment: Biological evaluation, summary statements over the MIC and cytotoxicity tests
Protocol: (§4) Cells were seeded at 6×10^3 cells per well of 96-well plates (Corning CellBind®) in complete medium (180 μl) and directly treated with cystobactamides dissolved in methanol in a serial dilution. Compound were tested in duplicate for 5 d, as well as the internal solvent control. After 5 d incubation, 5 mg/ml MTT in PBS (20 μL) was added per well and it was further incubated for 2 h at 37° C.[7] The medium was then discarded and cells were washed with PBS (100 μl) before adding 2-propanol/10N HCl (250:1, v/v; 100 μl) in order to dissolve formazan granules. The absorbance at 570 nm was measured using a microplate reader (EL808, Bio-Tek Instruments Inc.).
as §3

E. coli WT = experiment: Susceptibility of mutant E. coli strains, MIC; details: Escherichia coli WT
Text: as §1
High-level quinolone resistance often results from a combination of several target site mutations and altered efflux mechanisms. […] This, in turn, leads to overproduction of MarA and AcrAB and overexpression of the AcrAB efflux pump is associated with the MAR (multiple antibiotic resistance) phenotype.^[5]
as §2, §3

[24] = tested on: E. coli strain WT III (marR Δ74 bp); experiment: Susceptibility of mutant E. coli strains, MIC
Protocol: as §2, §3

[25] = tested on: Primary HUVEC (human umbilical vein endothelial cells)
Protocol: (§5) Human HCT-116 colon carcinoma cells (CCL-247) were obtained from the American Type Culture Collection (ATCC) and Chinese hamster ovary CHO-K1 cells (ACC-110) were obtained from the German Collection of Microorganisms and Cell Cultures (DSMZ). Both cell lines were cultured under the conditions recommended by the respective depositor. Primary HUVEC (human umbilical vein endothelial cells; single donor) were purchased from PromoCell (Heidelberg, Germany) and cultured in Endothelial Cell Growth Medium (PromoCell) containing the following supplements: 2% FCS, 0.4% ECGS, 0.1 ng/ml EGF, 1 ng/ml bFGF, 90 μg/ml heparin, 1 μg/ml hydrocortisone.
as §4

[26] = tested on: Human HCT-116 colon carcinoma cells
Protocol: as §5, §4

COC(C(=O)Nc1ccc(C(=O)Nc2ccc(C(=O)Nc3ccc(C(=O)O)cc3OC(C)C)c(O)c2OC(C)C)cc1)C(NC(=O)c1ccc(NC(=O)c2ccc([N+](=O)[O-])cc2)cc1)C(=O)O (stereo not shown) [cystobactamide B]
MIC [1]: 3.7 µg/mL (≈ 4.02 µM)
MIC [2]: 3.7 µg/mL (≈ 4.02 µM)
MIC [3]: 1.8 µg/mL (≈ 1.95 µM)
MIC [4]: 7.4 µg/mL (≈ 8.04 µM)
MIC [5]: 1.8 µg/mL (≈ 1.95 µM)
MIC [6]: 1.8 µg/mL (≈ 1.95 µM)
MIC [7]: >59 µg/mL
MIC [8]: 0.9 µg/mL (≈ 0.977 µM)
MIC [9]: 3.7 µg/mL (≈ 4.02 µM)
MIC [10]: 0.23 µg/mL (≈ 0.25 µM)
MIC [11]: 0.23 µg/mL (≈ 0.25 µM)
MIC [12]: 14.7 µg/mL (≈ 16 µM)
MIC [13]: >59 µg/mL
MIC [14]: 0.12 µg/mL (≈ 0.13 µM)
MIC (Bacillus subtilis DSM-10): 0.46 µg/mL (≈ 0.5 µM)
MIC [15]: >59 µg/mL
MIC [16]: 0.46 µg/mL (≈ 0.5 µM)
MIC [17]: >59 µg/mL
MIC [18]: 3.7 µg/mL (≈ 4.02 µM)
MIC [19]: 1.8 µg/mL (≈ 1.95 µM)
MIC [20]: 1.8 µg/mL (≈ 1.95 µM)
MIC [21]: 14.7 µg/mL (≈ 16 µM)
MIC (Pichia anomala DSM-6766): >59 µg/mL
MIC [22]: >59 µg/mL
inhibition of pathogenic Gram-negative strains A. baumannii and P. aeruginosa (MIC range) ([23]; A. baumannii and P. aeruginosa): low μg/ml range
average potency on Gram-positive bacteria compared with ciprofloxacin ([23]; E. faecalis, S. aureus, S. pneumonia, average MIC): exceeded that of ciprofloxacin
MIC (E. coli WT): 1.8 µg/mL
MIC, in words ([24]; E. coli WT III): in the μg/ml range
MIC ([24]; Escherichia coli WTIII [marRΔ74bp]): 3.7 µg/mL (≈ 4.02 µM)
GI50 [25]: > 50 µM
GI50 [26]: > 50 µM
